In US9556237B2 (priority 2012, dated 2017):

Legend:
RVFV-MP12 = type: cell-based, Rift Valley fever virus
EBOV-eGFP = type: cell-based, Zaire ebolavirus

Row | Compound | inhibition of RVFV-MP12 (plaque reduction), in words (RVFV-MP12) | other results
1 | FVGAAVSCDAAFLNLTGCY [RVFV-4] | Only RVFV-5 demonstrated any inhibition | –
2 | LGASSSRFTNWGSVSLSLD [RVFV-3] | Only RVFV-5 demonstrated any inhibition | –
3 | WGCGCFNVNPSCLFVHTYL [RVFV-2] | Only RVFV-5 demonstrated any inhibition | –
4 | CSCC[C@H](NC(=O)[C@H](CC(C)C)NC(=O)CNC(=O)[C@H](CO)NC(=O)[C@H](Cc1ccccc1)NC(=O)[C@H](Cc1c[nH]c2ccccc12)NC(=O)[C@H](CC(=O)O)NC(=O)[C@H](Cc1ccccc1)NC(=O)[C@H](Cc1ccccc1)NC(=O)[C@H](CC(N)=O)NC(=O)[C@@H](N)Cc1c[nH]c2ccccc12)C(=O)N[C@@H](CO)C(=O)N[C@@H](Cc1c[nH]c2ccccc12)C(=O)N[C@@H](Cc1ccccc1)C(=O)NCC(=O)NCC(=O)N1CCC[C@H]1C(=O)N[C@@H](CC(C)C)C(=O)N[C@@H](CCCCN)C(=O)O [RVFV-6, WNFFDWFSGLMSWFGGPLK] | – | impact on cell proliferation (MTT assay) (Vero E6 cells): little negative impact on cell proliferation
5 | YWTGSISPKCLSSRRCHLV [RVFV-1] | Only RVFV-5 demonstrated any inhibition | –
6 | SGSWNFFDWFSGLMSWFGGPL [RVFV-10] | – | inhibition of EBOV (GFP signal) (EBOV-eGFP): strongly inhibit
